According to patent US11400063B2, “Early administration of low-dose colchicine after myocardial infarction” (INSTITUT DE CARDIOLOGIE DE MONTREAL, priority 2019, dated 2022):

Test system: patients recruited within 30 days after a myocardial infarction
Test: COLCOT time-to-treatment initiation (TTI) analysis
Type: in vivo, human
Settings: for All Coronary Revascularizations, HR (95% CI) / All-cause death, HR (95% CI) / MI, HR (95% CI) / Primary composite endpoint, HR (95% CI) / Resuscitated cardiac arrest, HR (95% CI) / Secondary Composite Endpoint, HR (95% CI) / Stroke, HR (95% CI) / Urgent hospitalization for angina requiring coronary revascularization, HR (95% CI) / Time to first positively adjudicated primary endpoint, HR (95% CI): colchicine vs. placebo
Method: (§1) The results of the COLCOT trial have been further analyzed to determine if time to treatment initiation (TTI) had any effect on the outcome of the treatment. Three different cutoffs for TTI were used in order to determine the association between early initiation of therapy and clinical outcomes. These cutoffs were determined based on the usual journey of patients with MI. The first 30-day post-MI timeline was divided into three independent periods of time, and analyzed as such: from day 0 to 3, referring to in-hospital management; from day 4 to 7, referring to early post-discharge period and from day 8 to 30, referring to late post-discharge period.
COLCOT was an international multicenter, randomized, double-blinded trial that randomly assigned patients to receive either low-dose colchicine (0.5 mg once daily) or placebo. The study protocol and main results have been published (see, Tardif et al., N Engl J Med 2019). […] Main exclusion criteria were severe heart failure, reduced left ventricular ejection fraction (<35%), recent stroke (<3 months), type 2 MI, recent (<3 years) or planned coronary artery bypass graft (CABG), history of cancer (<3 years), and inflammatory bowel disease or chronic diarrhea. All patients enrolled in the trial benefited from percutaneous coronary intervention whenever indicated and guidelines-directed management of CV disease prior to randomization (see. Tardif et al., N Engl J Med 2019).
The primary efficacy endpoint was a composite of CV death, resuscitated cardiac arrest, MI, stroke, or urgent hospitalization for angina requiring coronary revascularization. The secondary endpoints consisted of the components of the primary efficacy endpoint, all-cause death, and a composite of CV death, resuscitated cardiac arrest, MI, or stroke. Exploratory endpoints included all coronary revascularizations, including both elective and urgent coronary revascularizations.
as §1, with “Three” for “The results of the COLCOT trial have been further analyzed to determine if time to treatment initiation (TTI) had any effect on the outcome of the treatment. Three”
Both the TTI of less than 4 days and the TTI of less than 5 days was were calculated using a basic model (Table 4 and Table 6) as well as an adjusted model (Table 5 and Table 7) which is described below in the statistical analysis section. In all cases, the interaction p-value was not significant (p>0.05), meaning that the conclusion over Placebo vs. Colchicine group can be obtained directly from the respective p-values for HR. In other words, relationships within the placebo and colchicine groups with TTI are both linear/parallel and the interpretation is straightforward.
For the present TTI analysis, the data were centrally analyzed by an independent academic biostatistics center at the Montreal Health Innovations Coordinating Center. The analysis was conducted amongst patients who received at least one dose of the study medication (referred to as the safety population in the main protocol, FIG. 1). TTI was defined as the length of time in days between the index MI and the initiation of the study medication, and three specific cutoffs were analyzed ([…], days 4 to […]). Early initiation of therapy was defined as TTI≤3 days. Baseline characteristics were summarized using counts and percentages for categorical variables and mean±standard deviation (SD) for continuous variables. For each baseline characteristic, comparisons were made using ANOVA for continuous variables and Chi-Square test for categorical variables according to TTI strata. […]

[1] = TTI 0-3 days, listed as colchicine
[2] = delay between randomization and index MI [0-4] days
[3] = delay between randomization and index MI [0-5] days
[4] = delay between randomization and index MI [5-30] days
[5] = delay between randomization and index MI [6-30] days

COc1cc2c(c(OC)c1OC)-c1ccc(OC)c(=O)cc1[C@@H](NC(C)=O)CC2 [Colchicine, colchicine]
All Coronary Revascularizations, % of patients (TTI 0-3 days, N = 1193): 5.5%
All Coronary Revascularizations, no. of patients (TTI 0-3 days, N = 1193): 33 no.
All-cause death, % of patients (TTI 0-3 days, N = 1193): 1.0%
All-cause death, no. of patients (TTI 0-3 days, N = 1193): 6 no.
MI, % of patients (TTI 0-3 days, N = 1193): 2.8%
MI, no. of patients (TTI 0-3 days, N = 1193): 17 no.
Primary composite endpoint, % of patients (TTI 0-3 days, N = 1193): 4.3%
Primary composite endpoint, no. of patients (TTI 0-3 days, N = 1193): 26 no.
Resuscitated cardiac arrest, % of patients (TTI 0-3 days, N = 1193): 0.2%
Resuscitated cardiac arrest, no. of patients (TTI 0-3 days, N = 1193): 1 no.
Secondary Composite Endpoint, % of patients (TTI 0-3 days, N = 1193): 3.3%
Stroke, % of patients (TTI 0-3 days, N = 1193): 0.2%
Stroke, no. of patients (TTI 0-3 days, N = 1193): 1 no.
Urgent hospitalization for angina requiring coronary revascularization, % of patients (TTI 0-3 days, N = 1193): 1%
Urgent hospitalization for angina requiring coronary revascularization, no. of patients (TTI 0-3 days, N = 1193): 6 no.
Secondary Composite Endpoint, no. of patients (TTI 0-3 days, N = 1193, CV death, resuscitated cardiac arrest, MI or stroke): 20 no.
All Coronary Revascularizations, HR (95% CI) (TTI 0-3 days): 0.63 (0.40-0.97); p = 0.037
All-cause death, HR (95% CI) (TTI 0-3 days): 1.03 (0.33-3.19); p = 0.962
MI, HR (95% CI) (TTI 0-3 days): 0.58 (0.32-1.05); p = 0.071
Primary composite endpoint, HR (95% CI) (TTI 0-3 days): 0.52 (0.32-0.84); p = 0.007
Resuscitated cardiac arrest, HR (95% CI) (TTI 0-3 days): 0.33 (0.03-3.20); p = 0.340
Secondary Composite Endpoint, HR (95% CI) (TTI 0-3 days): 0.55 (0.32-0.95); p = 0.031
Stroke, HR (95% CI) (TTI 0-3 days): 0.21 (0.02-1.81); p = 0.156
Urgent hospitalization for angina requiring coronary revascularization, HR (95% CI) (TTI 0-3 days): 0.35 (0.14-0.88); p = 0.026
All Coronary Revascularizations, HR (95% CI) [1]: 0.63
All-cause death, HR (95% CI) [1]: 1.03
MI, HR (95% CI) [1]: 0.58
Primary composite endpoint, HR (95% CI) [1]: 0.52
Resuscitated cardiac arrest, HR (95% CI) [1]: 0.33
Secondary Composite Endpoint, HR (95% CI) [1]: 0.55
Stroke, HR (95% CI) [1]: 0.21
Urgent hospitalization for angina requiring coronary revascularization, HR (95% CI) [1]: 0.35
All Coronary Revascularizations, % of patients (TTI 4-7 days, N = 720): 6.9%
All Coronary Revascularizations, no. of patients (TTI 4-7 days, N = 720): 25 no.
All-cause death, % of patients (TTI 4-7 days, N = 720): 2.2%
All-cause death, no. of patients (TTI 4-7 days, N = 720): 8 no.
MI, % of patients (TTI 4-7 days, N = 720): 4.4%
MI, no. of patients (TTI 4-7 days, N = 720): 16 no.
Primary composite endpoint, % of patients (TTI 4-7 days, N = 720): 6.0%
Primary composite endpoint, no. of patients (TTI 4-7 days, N = 720): 22 no.
Resuscitated cardiac arrest, % of patients (TTI 4-7 days, N = 720): 0.5%
Resuscitated cardiac arrest, no. of patients (TTI 4-7 days, N = 720): 2 no.
Secondary Composite Endpoint, % of patients (TTI 4-7 days, N = 720): 4.9%
Secondary Composite Endpoint, no. of patients (TTI 4-7 days, N = 720): 18 no.
Stroke, % of patients (TTI 4-7 days, N = 720): 0.3%
Stroke, no. of patients (TTI 4-7 days, N = 720): 1 no.
Urgent hospitalization for angina requiring coronary revascularization, % of patients (TTI 4-7 days, N = 720): 1.1%
Urgent hospitalization for angina requiring coronary revascularization, no. of patients (TTI 4-7 days, N = 720): 4 no.
All Coronary Revascularizations, HR (95% CI) (TTI 4-7 days): 1.41 (0.76-2.61); p = 0.275
All-cause death, HR (95% CI) (TTI 4-7 days): 1.03 (0.37-2.84); p = 0.957
MI, HR (95% CI) (TTI 4-7 days): 1.67 (0.74-3.78); p = 0.218
Primary composite endpoint, HR (95% CI) (TTI 4-7 days): 0.96 (0.53-1.75); p = 0.896
Resuscitated cardiac arrest, HR (95% CI) (TTI 4-7 days): 1.90 (0.17-20.95); p = 0.600
Secondary Composite Endpoint, HR (95% CI) (TTI 4-7 days): 1.04 (0.53-2.03); p = 0.919
Stroke, HR (95% CI) (TTI 4-7 days): 0.28 (0.03-2.71); p = 0.272
Urgent hospitalization for angina requiring coronary revascularization, HR (95% CI) (TTI 4-7 days): 0.63 (0.18-2.24); p = 0.476
All Coronary Revascularizations, % of patients (TTI ≥ 8 days, N = 2748): 5.3%
All Coronary Revascularizations, no. of patients (TTI ≥ 8 days, N = 2748): 72 no.
All-cause death, % of patients (TTI ≥ 8 days, N = 2748): 1.9%
All-cause death, no. of patients (TTI ≥ 8 days, N = 2748): 26 no.
MI, % of patients (TTI ≥ 8 days, N = 2748): 3.8%
MI, no. of patients (TTI ≥ 8 days, N = 2748): 52 no.
Primary composite endpoint, % of patients (TTI ≥ 8 days, N = 2748): 5.7%
Primary composite endpoint, no. of patients (TTI ≥ 8 days, N = 2748): 77 no.
Resuscitated cardiac arrest, % of patients (TTI ≥ 8 days, N = 2748): 0.1%
Resuscitated cardiac arrest, no. of patients (TTI ≥ 8 days, N = 2748): 2 no.
Secondary Composite Endpoint, % of patients (TTI ≥ 8 days, N = 2748): 4.9%
Secondary Composite Endpoint, no. of patients (TTI ≥ 8 days, N = 2748): 67 no.
Stroke, % of patients (TTI ≥ 8 days, N = 2748): 0.1%
Stroke, no. of patients (TTI ≥ 8 days, N = 2748): 2 no.
Urgent hospitalization for angina requiring coronary revascularization, % of patients (TTI ≥ 8 days, N = 2748): 1.1%
Urgent hospitalization for angina requiring coronary revascularization, no. of patients (TTI ≥ 8 days, N = 2748): 15 no.
All Coronary Revascularizations, HR (95% CI) (TTI ≥ 8 days): 0.81 (0.59-1.10); p = 0.172
All-cause death, HR (95% CI) (TTI ≥ 8 days): 0.90 (0.53-1.51); p = 0.684
MI, HR (95% CI) (TTI ≥ 8 days): 0.93 (0.64-1.35); p = 0.710
Primary composite endpoint, HR (95% CI) (TTI ≥ 8 days): 0.82 (0.61-1.11); p = 0.200
Resuscitated cardiac arrest, HR (95% CI) (TTI ≥ 8 days): 1.02 (0.14-7.22); p = 0.986
Secondary Composite Endpoint, HR (95% CI) (TTI ≥ 8 days): 0.92 (0.66-1.28); p = 0.629
Stroke, HR (95% CI) (TTI ≥ 8 days): 0.19 (0.04-0.84); p = 0.029
Urgent hospitalization for angina requiring coronary revascularization, HR (95% CI) (TTI ≥ 8 days): 0.61 (0.32-1.16); p = 0.131
Time to first positively adjudicated primary endpoint, HR (95% CI) ([0-4] days, adjusted Cox model): 0.58 (0.36; 0.89)
Time to first positively adjudicated primary endpoint, HR (95% CI) ([0-4] days, adjusted Cox model, listed as colchicine): 0.58
Time to first positively adjudicated primary endpoint, HR (95% CI) ([0-4] days, basic Cox model): 0.57 (0.37; 0.87)
Time to first positively adjudicated primary endpoint, HR (95% CI) ([0-5] days, adjusted Cox model, listed as colchicine): 0.68 (0.45-1.02)
Time to first positively adjudicated primary endpoint, HR (95% CI) ([0-5] days, basic Cox model): 0.67 (0.45; 1.01)
Time to first positively adjudicated primary endpoint, HR (95% CI) ([5-20] days, adjusted Cox model): 0.84 (0.64; 1.11)
Time to first positively adjudicated primary endpoint, HR (95% CI) ([5-20] days, basic Cox model): 0.83 (0.63; 1.09)
Time to first positively adjudicated primary endpoint, HR (95% CI) ([6-30] days, adjusted Cox model): 0.35 (0.60, 1.05)
Time to first positively adjudicated primary endpoint, HR (95% CI) ([6-30] days, basic Cox model): 0.78 (0.59; 1.03)
reduction in the risk of the composite primary endpoint (colchicine initiated between days 0 and 3, vs placebo): 48%
Positively adjudicated primary endpoint No, % of patients [2]: (95.6%)
Positively adjudicated primary endpoint No, no. of patients [2]: 734 no.
Positively adjudicated primary endpoint Yes, % of patients [2]: (4.4%)
Positively adjudicated primary endpoint Yes, no. of patients [2]: 34 no.
Positively adjudicated primary endpoint No, % of patients [3]: (95.3%)
Positively adjudicated primary endpoint No, no. of patients [3]: 819 no.
Positively adjudicated primary endpoint Yes, % of patients [3]: (4.7%)
Positively adjudicated primary endpoint Yes, no. of patients [3]: 40 no.
Positively adjudicated primary endpoint No, % of patients [4]: (94.1%)
Positively adjudicated primary endpoint No, no. of patients [4]: 1463 no.
Positively adjudicated primary endpoint Yes, % of patients [4]: (5.9%)
Positively adjudicated primary endpoint Yes, no. of patients [4]: 91 no.
Positively adjudicated primary endpoint No, % of patients [5]: (94.2%)
Positively adjudicated primary endpoint No, no. of patients [5]: 1378 no.
Positively adjudicated primary endpoint Yes, % of patients [5]: (5.8%)
Positively adjudicated primary endpoint Yes, no. of patients [5]: 85 no.
reduction of secondary efficacy endpoint (CV death, resuscitated cardiac arrest, MI or stroke) (early initiation of low-dose colchicine): 45%
